Values quoted from earlier work, collected in patent US20240390444A1, “COMPOSITIONS AND METHODS LOWERING GLYCEMIC RESPONSE TO IMPROVE SLEEP QUALITY AND/OR SUBSEQUENT BEHAVIOURAL OUTCOMES” (SOCIETE DES PRODUITS NESTLE S.A., priority 2021, published 2024).

Details: 12.5 mg DNJ in capsule, co-ingestion with maltodextrin

In the case of `OC[C@H]1NC[C@H](O)[C@@H](O)[C@@H]1O` [DNJ, 1-deoxynojirimycin], the “reduction of PPGR” value is listed as 14%.
